In assay [1] the test system is Seeds of Lettuce R. (Super-Jericho). Kind of assay: Filter paper bioassay with lettuce seeds (germination and early plant development). It is filed as in vivo. The following applies: lettuce seeds on filter paper; 1, 0.1, 0.01, 0.001 mM; radicle and shoots assessed after 6 days. As to the method: Seeds of Lettuce R. (Super-Jericho, non-sterilized) were obtained from Ben Shahar Moshe Ltd., 99% purity.
Filter Paper Bioassays with Lettuce Seeds:
The protocol is following Bertin et al. 2009 and Movellan et al. 2014 with specified modifications as described below.
Seeds were placed on Whatman no. 1 filter paper (Whatman, Middlesex, U.K.) in Petri dishes (10 seeds per plate) supplemented with 2.0 ml of water (Control) or with a solution comprising 1 mM, 0.1 mM, 0.01 mM and 0.001 mM of test material. Petri dishes with seeds were placed in a tray at an angle of 45°. The trays were kept in dark for 48 hours and then transferred to the growth chamber (22° C., 0.045 mmol×m−2×s−1 photosynthetic photon flux density; 6/18 dark/light cycle) for additional 4 days. Each experiment was performed at least in two repeats. The development of radicle and shoots of experimental and control plants were visually assessed 6 days after the beginning of the test to determine Minimal Effective Concentration (MEC) of test material. In the context of the invention, MEC is defined as the lowest concentration level of a test material that caused deviation (absence of germination or malformation of radicle and shoots) from the plant's development in the Control group.

The subject of assay [2] is Romaine lettuce (Lactuca sativa L.) plants. Briefly: Post-emergency herbicidal activity on Romaine lettuce plants. The format is in vivo. The following applies: Romaine lettuce at stage 2 to 3 leaves; compound in 0.1% Silwet, up to 0.5%; visual evaluation vs control plants. As to the method:
The tests were performed on Romaine lettuce (Lactuca sativa L.) plants at the stage 2 to 3 leaves. The plants were grown on 300 well trays packed with soil, well dimensions 2×2×5 cm. Each compound was dissolved in 0.1% water solution of agronomically acceptable surfactant Silwet to final concentrations ranging from 0.0% (Control) to 0.5%. Two weeks after the treatment the herbicidal effects of the respective test material were visually evaluated by a comparison with the control plants. In addition, the aboveground part of the plant was neatly cut and weighed (wet weight). Each test was performed on 20 to 40 plants. The degree of growth inhibition and damage was evaluated according to the parameters in Table 2. Plant development at 7, 14, and 21 DAA (days after application) were evaluated on a scale of 0 to 100, in which score 0 represents dead plants and score 100 represents healthy plants according to plant vigor, height, and leaf color. Each test included 20 to 40 plants.

With `NC(Cc1cocn1)C(=O)O` (stereo not drawn) [Code 542], in assay [1], the “Minimal Effective Concentration (MEC) as activity score, seeds germination & early plants development” value (shortened to “Minimal Effective Concentration (MEC)”) is “Weak (More than 1 mM)”. In addition, the “post-emergency herbicidal activity (Activity Index: plant's development vs Control)” value in assay [2] is on record as “Weak (More than 75)”.

As to `O=CNC(Cc1ccsc1)C(=O)O` (stereo not drawn) [Code 545], in assay [1], the “Minimal Effective Concentration (MEC)” value was “Weak (More than 1 mM)”. In assay [2], the “post-emergency herbicidal activity (Activity Index: plant's development vs Control)” value is recorded as “Weak (More than 75)”.

Take `COC(=O)C(N)Cc1ccsc1` (stereo not drawn) [Code 546]: the “Minimal Effective Concentration (MEC)” value in assay [1] is “Maximal (0.01 mM and less)”. The “post-emergency herbicidal activity (Activity Index: plant's development vs Control)” value in assay [2] is “Very Strong (From 15 to 25)”.

For `CCOC(=O)C(N)Cc1ccsc1` (stereo not drawn) [Code 547], the “Minimal Effective Concentration (MEC)” value in assay [1] was “Maximal (0.01 mM and less)”. In assay [2], the “post-emergency herbicidal activity (Activity Index: plant's development vs Control)” value is recorded as “Very Strong (From 15 to 25)”.

As to `NC(Cc1ccsc1)C(=O)NCCOCCO` (stereo not drawn) [Code 549], in assay [1], the “Minimal Effective Concentration (MEC)” value is reported as “Weak (More than 1 mM)”. The “post-emergency herbicidal activity (Activity Index: plant's development vs Control)” value in assay [2] is “Weak (More than 75)”.

On to `NC(Cc1cc(Br)sc1Br)C(=O)O` (stereo not drawn) [Code 552], for which the “Minimal Effective Concentration (MEC)” value in assay [1] was “Moderate (1 mM)”. Moreover, the “post-emergency herbicidal activity (Activity Index: plant's development vs Control)” value in assay [2] is on record as “Maximal (Less than 15)”.

In the case of `NC(Cc1csc([N+](=O)[O-])c1)C(=O)O` (stereo not drawn) [Code 553], the “Minimal Effective Concentration (MEC)” value in assay [1] is “Weak (More than 1 mM)”. Also, the “post-emergency herbicidal activity (Activity Index: plant's development vs Control)” value in assay [2] is “Weak (More than 75)”.

Consider `CCOCCOC(=O)C(Cc1nc(Cl)sc1Cl)NC(C)=O` (stereo not drawn) [Code 555], for which the “Minimal Effective Concentration (MEC)” value in assay [1] is “Strong (0.1 mM)”. Besides, the “post-emergency herbicidal activity (Activity Index: plant's development vs Control)” value in assay [2] is “Maximal (Less than 15)”.

Consider `NC(Cc1csc(C(F)(F)F)c1)C(=O)O` (stereo not drawn) [Code 556], for which the “Minimal Effective Concentration (MEC)” value in assay [1] was “Strong (0.1 mM)”. For the same compound, the “post-emergency herbicidal activity (Activity Index: plant's development vs Control)” value in assay [2] is given as “Maximal (Less than 15)”.

Regarding `N[C@@H](Cn1oc(=O)[nH]c1=O)C(=O)O` [Code 557], the “Minimal Effective Concentration (MEC)” value in assay [1] is “Weak (More than 1 mM)”. The “post-emergency herbicidal activity (Activity Index: plant's development vs Control)” value in assay [2] is “Weak (More than 75)”.

In the case of `NC(CNS(=O)(=O)c1cc(Br)sc1Br)C(=O)O` (stereo not drawn) [Code 558], the “Minimal Effective Concentration (MEC)” value in assay [1] is “Maximal (0.01 mM and less)”. In addition, in assay [2], the “post-emergency herbicidal activity (Activity Index: plant's development vs Control)” value was “Very Strong (From 15 to 25)”.

Turning to `NC(CC1CCS(=O)(=O)C1)C(=O)O` (stereo not drawn) [Code 561], the “Minimal Effective Concentration (MEC)” value in assay [1] was “Weak (More than 1 mM)”. Also, the “post-emergency herbicidal activity (Activity Index: plant's development vs Control)” value in assay [2] is reported as “Weak (More than 75)”.

For the compound `NC(CC1CCSC1)C(=O)O` (stereo not drawn) [Code 562], the “Minimal Effective Concentration (MEC)” value in assay [1] is listed as “Weak (More than 1 mM)”. Also, the “post-emergency herbicidal activity (Activity Index: plant's development vs Control)” value in assay [2] was “Weak (More than 75)”.

On to `NC(CP(=O)(O)O)c1ccsc1` (stereo not drawn) [Code 563], for which, in assay [1], the “Minimal Effective Concentration (MEC)” value is reported as “Weak (More than 1 mM)”. Besides, the “post-emergency herbicidal activity (Activity Index: plant's development vs Control)” value in assay [2] is “Weak (More than 75)”.

As for `CC1=CC(CC(N)C(=O)O)=C(C)S1(=O)=O` (stereo not drawn) [Code 564], in assay [1], the “Minimal Effective Concentration (MEC)” value is “Weak (More than 1 mM)”. Besides, in assay [2], the “post-emergency herbicidal activity (Activity Index: plant's development vs Control)” value was “Weak (More than 75)”.

In the case of `O=C1C=C(CC(NP(=O)(O)O)C(=O)O)C(=O)S1` (stereo not drawn) [Code 565], the “Minimal Effective Concentration (MEC)” value in assay [1] is “Strong (0.1 mM)”. For the same compound, the “post-emergency herbicidal activity (Activity Index: plant's development vs Control)” value in assay [2] is recorded as “Weak (More than 75)”.

For `NC(Cc1cscc1C(F)(F)F)C(=O)O` (stereo not drawn) [Code 566], the “Minimal Effective Concentration (MEC)” value in assay [1] is listed as “Strong (0.1 mM)”. Also, the “post-emergency herbicidal activity (Activity Index: plant's development vs Control)” value in assay [2] is “Maximal (Less than 15)”.

Regarding `CCOC(=O)C(Cc1nc(Cl)sc1Cl)NC(C)=O` (stereo not drawn) [Code 567], the “Minimal Effective Concentration (MEC)” value in assay [1] is “Weak (More than 1 mM)”. In addition, in assay [2], the “post-emergency herbicidal activity (Activity Index: plant's development vs Control)” value is “Maximal (Less than 15)”.

For `CCOC(=O)C(N)Cc1cc(Cl)sc1Cl` (stereo not drawn) [Code 569], in assay [1], the “Minimal Effective Concentration (MEC)” value is “Strong (0.1 mM)”. The “post-emergency herbicidal activity (Activity Index: plant's development vs Control)” value in assay [2] is on record as “Maximal (Less than 15)”.

Take `COCCOCCOC(=O)C(N)Cc1ccsc1` (stereo not drawn) [Code 570]: the “Minimal Effective Concentration (MEC)” value in assay [1] was “Maximal (0.01 mM and less)”. In assay [2], the “post-emergency herbicidal activity (Activity Index: plant's development vs Control)” value is given as “Very Strong (From 15 to 25)”.

For the compound `CCOC(=O)C(Cc1ccsc1)NC(C)=O` (stereo not drawn) [Code 571], in assay [1], the “Minimal Effective Concentration (MEC)” value is reported as “Strong (0.1 mM)”. Also, in assay [2], the “post-emergency herbicidal activity (Activity Index: plant's development vs Control)” value is “Very Strong (From 15 to 25)”.

With `CCOC(=O)C(Cc1cc(Cl)sc1Cl)NC(C)=O` (stereo not drawn) [Code 573], in assay [1], the “Minimal Effective Concentration (MEC)” value is listed as “Strong (0.1 mM)”. Moreover, in assay [2], the “post-emergency herbicidal activity (Activity Index: plant's development vs Control)” value is on record as “Maximal (Less than 15)”.

Turning to `CCOC(=O)C(Cc1cc(Cl)oc1Cl)NC(C)=O` (stereo not drawn) [Code 574], the “Minimal Effective Concentration (MEC)” value in assay [1] is listed as “Strong (0.1 mM)”. For the same compound, the “post-emergency herbicidal activity (Activity Index: plant's development vs Control)” value in assay [2] was “Moderate (From 50 to 75)”.

Turning to `CCCOC(=O)C(N)Cc1cc(Cl)oc1Cl` (stereo not drawn) [Code 575], the “Minimal Effective Concentration (MEC)” value in assay [1] was “Strong (0.1 mM)”. Also, the “post-emergency herbicidal activity (Activity Index: plant's development vs Control)” value in assay [2] is on record as “Moderate (From 50 to 75)”.

For `CCOC(=O)C(Cc1csc[n+]1C)NC(C)=O.[Cl-]` (stereo not drawn) [Code 576], the “Minimal Effective Concentration (MEC)” value in assay [1] is reported as “Moderate (1 mM)”. For the same compound, in assay [2], the “post-emergency herbicidal activity (Activity Index: plant's development vs Control)” value is on record as “Maximal (Less than 15)”.

`CCOCCOCCOC(=O)C(Cc1cc(Cl)sc1Cl)NC(C)=O` (stereo not drawn) [Code 577]: the “Minimal Effective Concentration (MEC)” value in assay [1] was “Moderate (1 mM)”. The “post-emergency herbicidal activity (Activity Index: plant's development vs Control)” value in assay [2] is on record as “Strong (From 25 to 50)”.

Turning to `CCOC(=O)C(N)CNS(=O)(=O)c1cc(Br)sc1Br` (stereo not drawn) [Code 580], in assay [1], the “Minimal Effective Concentration (MEC)” value is on record as “Strong (0.1 mM)”. Further, the “post-emergency herbicidal activity (Activity Index: plant's development vs Control)” value in assay [2] is listed as “Very Strong (From 15 to 25)”.

As for `CCCCOC(=O)C(Cc1nsc(Cl)n1)NC(C)=O` (stereo not drawn) [Code 595], the “Minimal Effective Concentration (MEC)” value in assay [1] is given as “Strong (0.1 mM)”. Besides, the “post-emergency herbicidal activity (Activity Index: plant's development vs Control)” value in assay [2] was “Strong (From 25 to 50)”.

Consider `NC(Cc1ccnnc1)C(=O)O` (stereo not drawn) [Code 601], for which the “Minimal Effective Concentration (MEC)” value in assay [1] is recorded as “Weak (More than 1 mM)”. Further, the “post-emergency herbicidal activity (Activity Index: plant's development vs Control)” value in assay [2] was “Weak (More than 75)”.

Turning to `NC(Cc1ccncc1)C(=O)O` (stereo not drawn) [Code 602], in assay [1], the “Minimal Effective Concentration (MEC)” value was “Strong (0.1 mM)”. In addition, the “post-emergency herbicidal activity (Activity Index: plant's development vs Control)” value in assay [2] is given as “Moderate (From 50 to 75)”.

`Cl.Cl.NC(Cc1cccnc1)C(=O)O` (stereo not drawn) [Code 603]: the “Minimal Effective Concentration (MEC)” value in assay [1] was “Strong (0.1 mM)”. The “post-emergency herbicidal activity (Activity Index: plant's development vs Control)” value in assay [2] is on record as “Strong (From 25 to 50)”.

With `N[C@@H](Cc1cncc(O)c1)C(=O)O` [Code 605], the “Minimal Effective Concentration (MEC)” value in assay [1] was “Weak (More than 1 mM)”. Further, the “post-emergency herbicidal activity (Activity Index: plant's development vs Control)” value in assay [2] is “Weak (More than 75)”.

As to `Cc1cncc(CC(N)C(=O)O)c1` (stereo not drawn) [Code 606], in assay [1], the “Minimal Effective Concentration (MEC)” value is recorded as “Weak (More than 1 mM)”. In assay [2], the “post-emergency herbicidal activity (Activity Index: plant's development vs Control)” value is “Weak (More than 75)”.

For `Nc1ccnc(CC(N)C(=O)O)c1` (stereo not drawn) [Code 607], the “Minimal Effective Concentration (MEC)” value in assay [1] was “Weak (More than 1 mM)”. In addition, the “post-emergency herbicidal activity (Activity Index: plant's development vs Control)” value in assay [2] was “Weak (More than 75)”.

Turning to `Nc1cc(CC(N)C(=O)O)ccn1` (stereo not drawn) [Code 608], the “Minimal Effective Concentration (MEC)” value in assay [1] was “Moderate (1 mM)”. For the same compound, the “post-emergency herbicidal activity (Activity Index: plant's development vs Control)” value in assay [2] is on record as “Moderate (From 50 to 75)”.

As for `Nc1cccc(CC(N)C(=O)O)n1` (stereo not drawn) [Code 609], the “Minimal Effective Concentration (MEC)” value in assay [1] is given as “Weak (More than 1 mM)”. In addition, the “post-emergency herbicidal activity (Activity Index: plant's development vs Control)” value in assay [2] was “Weak (More than 75)”.

The values are drawn from patent US20220232831A1, “NOVEL NON-CODING HETEROCYCLIC AMINO ACIDS (NCHAA) AND THEIR USE AS HERBICIDES” (Fortephest Ltd., priority 2019, published 2022).
